Results: US9809593B2, “Use of tetramic acid derivatives as nematicides” (Syngenta Participations AG, priority 2013, dated 2017)

Assays:
Type in all cases: in vivo
[1] = system: Heterodera schachtii Schmidt (SBCN); assay: Pot trial: seed treatment and foliar spray in sugar beets, tuber weight; conditions: sugar beet, n = 8-10, harvest after 4 months
Text: POT TRIALS: Seed treatments and Foliar spray in sugar beets (Beta Vulgaris cv Impulse) against root nematodes Heterodera schachtii Schmidt (SBCN) (origin Münster, Germany)
15 7-L pots were used per treatment containing 7-L soil with an organic matter content of 2% (drench soil+sand). Seeds were planted into pot soil 1 cm deep and allowed to germinate and grow into young plants in a polytunnel. During the winter months, the pots were placed in a greenhouse. The pots were artificially infested with nematodes (SBCN) when preparing the soil for each pot and just before planting.
(§1) APPLICATION: Compounds A and comparison Spirotetramat were sprayed as a normal foliar spray with hollow cone nozzles directed onto the plants. The compounds A and Spirotetramat used were formulated as a suspension concentrate formulation at a dose rate of 100 g/ha. The first foliar spray was applied 14 days after sowing. A second foliar spray was carried out 3 weeks later.
Abamectin was used as a seed treatment. AVICTA® 500 FS from Syngenta AG was used at a rate of 500 g/L as a flowable concentrate (FS) formulation and applied to the seeds as a slurry to provide a rate of 0.6 mg of active ingredient per seed.
ASSESSMENT: Sugar beet plants were harvested after 4 months according to the prevailing temperatures and weather conditions. Sugar beet tuber weights were assessed according to standard practice.

[2] = system: Meloidogyne incognita (RKNi); assay: Pot trial: foliar spray in cotton against root-knot nematodes; conditions: for performance in comparison to prior art tetramic acid compound spirotetramat: foliar 100 g/ha
Text: POT TRIALS: Foliar spray in Cotton against nematodes Meloidogyne incognita (RKNi) using
12 1-L Clay pots were used per treatment. Cotton: Fibre Max 966 seeds were planted into pots and allowed to germinate and grow into young plants. The pots were artificially infested with nematodes (RKNi) 2 days after treatment.
APPLICATION: Compounds A and B and comparison Spirotetramat were sprayed as a normal foliar spray with hollow cone nozzles directed onto the plants. The compounds A, B and spirotetramat used were formulated as a suspension concentrate formulation at a dose rate of 100 g/ha. The compounds were diluted to a spray volume of approx […], which was used on the young plants. The treatment was applied when the plants had at least 2 true leaves.
Industry comparison Abamectin as a seed treatment was also included in the trials as a comparison. AVICTA® 500 FS from Syngenta AG was used at a rate of 500 g/L as a flowable concentrate (FS) formulation and applied to the seeds as a slurry to provide a rate of 0.15 mg of active ingredient per seed.
ASSESSMENT: Plants were removed 2 days after foliar spray treatment to assess penetration of the nematode in the roots with a dyeing method. Root galling/cysts were assessed according to standard practice.

[3] = system: Heterodera schachtii Schmidt (SBCN); assay: Pot trial: seed treatment and foliar spray in sugar beets, cysts per root system; conditions: sugar beet, 25 days after inoculation
Protocol: POT TRIALS: Seed treatments and Foliar spray in sugar beets (Beta Vulgaris cv Impulse) against root nematodes Heterodera schachtii Schmidt (SBCN)
8×350 ml pots were used per treatment containing 350 ml soil (70% drench soil and 30% sand). 1 Seed per pot were planted into pot soil 0.5 cm deep and allowed to germinate and grow into young plants. Plants were kept under constant conditions of 25° C. during the day and 23° C. during the night with a humidity of 50-60% with 14 hour light periods. The pots were artificially infested with nematodes (SBCN) 7 days after sowing. For inoculation, 3 holes are drilled into the soil and 2 ml suspension of the nematodes per hole are applied.
as §1, with “Compounds B” for “Compounds A”, “compounds B” for “compounds A”, “after sowing (i.e. 7 days after inoculation).” for “after sowing.”, “out 21 days after sowing (i.e. 14 days after inoculation).” for “out 3 weeks later.”
Abamectin was used as a seed treatment. AVICTA® 400 FS from Syngenta AG was used at a rate of 400 g/L as a flowable concentrate (FS) formulation and applied to the seeds as a slurry to provide a rate of 0.6 mg and 1 mg of active ingredient per seed.
ASSESSMENT: Sugar beet plants were harvested 25 days after inoculation. Sugar beet root and shoot weights were assessed according to standard practice. Number of cysts per root system and as a function of root weight were assessed.

[4] = foliar 100 g/ha, first application +14 days after sowing
[5] = foliar 100 g/ha at BBCH 14, artificial infestation 2 days after foliar spray
[6] = seed treatment 0.15 mg/seed at BBCH 00, artificial infestation at crop stage BBCH 14

Row | Molecule | Mean tuber weight relative to inoculated check (%), Observed % [1, 4] | performance in comparison to prior art tetramic acid compound spirotetramat [2] | % root length in cm compared to check (= 100%) [2, 5] | Number of root galls per plant [2, 5] | Efficacy in % of cyst nematodes per root system ([3]; Compound B 100 g/ha foliar) | Mean tuber weight relative to inoculated check (%), Observed % ([1]; seed treatment 0.6 mg/seed at sowing) | Efficacy in % of cyst nematodes per root system ([3]; Abamectin 0.6 mg/seed seed treatment) | Efficacy in % of cyst nematodes per root system ([3]; Abamectin 1 mg/seed seed treatment) | % root length in cm compared to check (= 100%) [2, 6] | Number of root galls per plant [2, 6]
1 | CCOC(=O)OC1=C(c2c(C)cc(Cl)cc2C)C(=O)NC12CCN(OC)CC2 [Compound A] | 17.0% | outperformed spirotetramat | 204% | 1 |  |  |  |  |  | 
2 | CCOC(=O)OC1=C(c2c(C)cc(Cl)cc2C)C(=O)N(C)C12CCN(OC)CC2 [Compound B] |  | outperformed spirotetramat | 213% | 0.33 | 12% |  |  |  |  | 
3 | CCOC(=O)OC1=C(c2cc(C)ccc2C)C(=O)N[C@]12CC[C@@H](OC)CC2 [Spirotetramat] | 30.0% |  | 100% | 5.83 |  |  |  |  |  | 
4 | Abamectin |  |  |  |  |  | 6.4% | 42% | 60% | 211% | 0.33
